Experimental data: article PMC10004090, “Novel Arylsulfonylhydrazones as Breast Anticancer Agents Discovered by Quantitative Structure-Activity Relationships” (Molecules, 2023)
Where two headings read alike, the source gives them in different places.

Tests used:
MCF-7 [1] = conditions: ligand efficiency LE = pIC50/N; training set 3a–o and cisplatin; cited from earlier work
MCF-7 [2] = assay: MTT cytotoxicity test on MCF-7 cell line; assay type: cell-based, human; conditions: for IC50: MTT, 72 h; for MCF-7 SI: selectivity index = IC50 on Neuro-2a/IC50 on MCF-7
Description: (§1) The anticancer activity of the novel arylsulfonylhydrazones was tested on two BC cell lines: MCF-7 and MDA-MB-231. The cell line MCF-7 originates from human breast adenocarcinoma and expresses estrogen receptor alpha (ER-α), while the cell line MDA-MB-231 represents TNBC adenocarcinoma and lacks any receptor [40]. To test the cytotoxicity of the compounds on healthy cells, they were incubated within Neuro-2a cells, which are mouse neuroblasts isolated from brain tissue.
(§2) The in vitro antineoplastic activity of the newly synthesized compounds was evaluated against human BC cell lines of different molecular types: the triple negative MDA-MB-231 cell line and the ER/PR/Her2 positive variant MCF-7, as well as against mouse neuroblast cells, Neuro-2a. All cell lines were purchased from the German Collection of Microorganisms and Cell Cultures (DSMZ GmbH, Braunschweig, Germany) and cultivated according to supplier’s instructions. Cells were cultured in an RPMI 1640 growth medium supplemented with 10% fetal bovine serum (FBS) and 5% L-glutamine, and incubated under standard conditions of 37 °C and 5% humidified CO2 atmosphere.
(§3) The cytostatic activity of the experimental compounds was investigated using an established methodology for assessing cell viability known as the Mosmann MTT method. The assay is colorimetric and measures the activity of mitochondrial enzymes by reducing the yellow dye MTT (3-(4,5-dimethylthiazol-2-yl)-2,5-diphenyltetrazolium bromide) to violet formazan crystals. Exponential-phased cells were harvested and seeded (100 μL/well) in 96-well plates at 1.5 × 10^5 density and incubated for 24 h. Cell cultures were treated and exposed to various concentrations (200–6.25 μM) of the tested compounds for 72 h, following which cell survival was quantified as percentage (%) relative to untreated control (100% cell viability).
(§4) Experimental data were processed using nonlinear regression analysis in the GraphPad Prism® software program. Semi-logarithmic “dose-response” curves were plotted and half-inhibitory concentrations (IC50) of the screened compounds were calculated for each of the tested tumor cell lines.

MDA-MB-231 = assay: MTT cytotoxicity test on MDA-MB-231 cell line; assay type: cell-based, human; conditions: for IC50: MTT, 72 h; for MDA-MB-231 SI: selectivity index = IC50 on Neuro-2a/IC50 on MDA-MB-231; for LE MDA-MB-231 Exp: LE = pIC50/N from MTT IC50, 72 h
Description: as §1, §2, §3, §4

Neuro-2a = assay: MTT cytotoxicity test on Neuro-2a cells (healthy-cell control); assay type: cell-based, mouse; conditions: for IC50: MTT, 72 h, healthy cells
Description: as §1, §2, §3, §4

MCF-7 [3] = conditions: ligand efficiency LE = pIC50/N; training set 5a–k and doxorubicin; cited from earlier work
MDA-MB-468 = conditions: ligand efficiency LE = pIC50/N; training set 5a–k and doxorubicin; cited from earlier work

Molecule: Cc1ccc(S(=O)(=O)N/N=C\c2c(C)cccc2Cl)cc1 [Compound 3l]
- LE MCF-7 (MCF-7 [1]): 0.180

Molecule: COc1ccc2[nH]cc(/C=N/NS(=O)(=O)c3ccc(C)cc3)c2c1 [Compound 1b, N’-[(E)-(5-methoxy-1H-indol-3-yl)methylidene]-4-methylbenzenesulfonohydrazide]
- IC50 (MCF-7 [2]; Homo sapiens, MCF7, 72 h): < 1 µM
- IC50 (MCF-7 [2]): 0.8 ± 0.3 µM
- MCF-7 SI (MCF-7 [2]): 5.000
- IC50 (MDA-MB-231; Homo sapiens, MDA-MB-231, 72 h): 8.5 ± 2.1 µM
- IC50 (Neuro-2a; Mus musculus, N2a): 4 ± 0.4 µM
- melting point: 201 to 202 °C

Molecule: Cc1ccc(S(=O)(=O)N/N=C\c2ccc3c(c2)OC(F)(F)O3)cc1 [Compound 3a]
- LE MCF-7 (MCF-7 [1]): 0.174

Molecule: Cc1ccc(S(=O)(=O)N/N=C\c2c[nH]nc2-c2ccccc2)cc1 [Compound 3h]
- LE MCF-7 (MCF-7 [1]): 0.141

Molecule: COc1ccc(S(=O)(=O)N/N=C\c2cn(CCN3CCOCC3)c3ccccc23)cc1 [Compound 5a]
- LE MCF-7 (MCF-7 [3]): 0.136
- LE MDA-MB-468 (MDA-MB-468): 0.141

Molecule: Cc1ccc(S(=O)(=O)N/N=C\c2ccccc2OC(F)(F)F)cc1 [Compound 3o]
- LE MCF-7 (MCF-7 [1]): 0.166

Molecule: O=S(=O)(N/N=C/c1ccc(Cl)cc1)c1ccccc1 [Compound 1h, N’-[(E)-(4-chlorophenyl)methylidene]benzenesulfonohydrazide]
- IC50 (MCF-7 [2]; Homo sapiens, MCF7): 157 ± 11.2 µM
- MCF-7 SI (MCF-7 [2]): 0.747
- IC50 (MDA-MB-231; Homo sapiens, MDA-MB-231): 63.1 ± 6.9 µM
- MDA-MB-231 SI (MDA-MB-231): 1.861

Molecule: COc1ccc(Br)cc1/C=N\NS(=O)(=O)c1ccc(C)cc1 [Compound 3i]
- LE MCF-7 (MCF-7 [1]): 0.170

Molecule: Cc1ccc(S(=O)(=O)N/N=C\c2cccc(Br)n2)cc1 [Compound 3m]
- LE MCF-7 (MCF-7 [1]): 0.176

Molecule: N.N.[Cl][Pt][Cl] [Cisplatin, reference compound]
- IC50 (MCF-7 [2]): 50.3 ± 6.5 µM
- LE MDA-MB-231 Exp (MDA-MB-231): 0.840
- IC50 (MDA-MB-231): 63.4 ± 7.2 µM
- LE MCF-7 (MCF-7 [1]): 0.931

Molecule: O=S(=O)(N/N=C\c1cn(CCN2CCOCC2)c2ccccc12)c1ccccc1 [Compound 5c]
- LE MCF-7 (MCF-7 [3]): 0.143
- LE MDA-MB-468 (MDA-MB-468): 0.149

Molecule: COc1ccc(/C=N\NS(=O)(=O)c2ccc(C)cc2)cc1[N+](=O)[O-] [Compound 3g]
- LE MCF-7 (MCF-7 [1]): 0.143

Molecule: Cc1ccc(S(=O)(=O)N/N=C\c2cc(-c3ccccc3)cs2)cc1 [Compound 3c]
- LE MCF-7 (MCF-7 [1]): 0.189

Molecule: O=[N+]([O-])c1ccc(S(=O)(=O)N/N=C\c2cn(CCN3CCOCC3)c3ccccc23)cc1 [Compound 5e]
- LE MCF-7 (MCF-7 [3]): 0.128
- LE MDA-MB-468 (MDA-MB-468): 0.138

Molecule: Cc1ccc(S(=O)(=O)N/N=C\c2cccn2C)cc1 [Compound 3n]
- LE MCF-7 (MCF-7 [1]): 0.207

Molecule: COc1ccc2[nH]cc(/C=N\NS(=O)(=O)c3ccccc3)c2c1 [Compound 1a, N’-[(Z)-(5-methoxy-1H-indol-3-yl)methylidene]benzenesulfonohydrazide]
- IC50 (MCF-7 [2]; Homo sapiens, MCF7, 72 h): < 1 µM
- IC50 (MCF-7 [2]): 0.6 ± 0.2 µM
- IC50 (MDA-MB-231; Homo sapiens, MDA-MB-231, 72 h): 3.1 ± 0.7 µM
- IC50 (Neuro-2a; Mus musculus, N2a): 5.2 ± 0.9 µM

Molecule: Cc1ccc(S(=O)(=O)N/N=C\c2cc(Br)cs2)cc1 [Compound 3b]
- LE MCF-7 (MCF-7 [1]): 0.203

Molecule: O=S(=O)(N/N=C\c1cn(CCN2CCOCC2)c2ccccc12)c1ccc(F)cc1 [Compound 5d]
- LE MCF-7 (MCF-7 [3]): 0.150
- LE MDA-MB-468 (MDA-MB-468): 0.161

Molecule: COc1cccc(/C=N\NS(=O)(=O)c2ccc(C)cc2)c1Cl [Compound 3k]
- LE MCF-7 (MCF-7 [1]): 0.197

Molecule: COc1ccc(/C=N/NS(=O)(=O)c2ccc(C)cc2)cc1OC [Compound 1g, N’-[(E)-(3,4-dimethoxyphenyl)methylidene]-4-methylbenzenesulfonohydrazide]
- IC50 (MCF-7 [2]; Homo sapiens, MCF7): 56.1 ± 8.4 µM
- MCF-7 SI (MCF-7 [2]): 2.415
- IC50 (MDA-MB-231; Homo sapiens, MDA-MB-231): > 500 µM

Molecule: O=S(=O)(N/N=C\c1cn(CCN2CCOCC2)c2ccccc12)c1ccc2ccccc2c1 [Compound 5h]
- LE MCF-7 (MCF-7 [3]): 0.116
- LE MDA-MB-468 (MDA-MB-468): 0.110

Molecule: Cc1ccc(S(=O)(=O)N/N=C\c2cn(CCN3CCOCC3)c3ccccc23)cc1 [Compound 5b]
- LE MCF-7 (MCF-7 [3]): 0.140
- LE MDA-MB-468 (MDA-MB-468): 0.146

Molecule: COc1ccc(/C=N/NS(=O)(=O)c2ccccc2)cc1OC [Compound 1f, N’-[(E)-(3,4-dimethoxyphenyl)methylidene]benzenesulfonohydrazide]
- IC50 (MCF-7 [2]; Homo sapiens, MCF7): 5.97 ± 2.1 µM
- IC50 (MDA-MB-231; Homo sapiens, MDA-MB-231): 266 ± 19.7 µM
- MDA-MB-231 SI (MDA-MB-231): 0.410

Molecule: CC(=O)n1cc(/C=N/NS(=O)(=O)c2ccccc2)c2ccccc21 [Compound 1c, N’-[(E)-(1-acetyl-1H-indol-3-yl)methylidene]benzenesulfonohydrazide]
- IC50 (MCF-7 [2]; Homo sapiens, MCF7, 72 h): < 1 µM
- IC50 (MCF-7 [2]): 0.9 ± 0.4 µM
- IC50 (MDA-MB-231; Homo sapiens, MDA-MB-231, 72 h): 19.2 ± 3.4 µM
- IC50 (Neuro-2a; Mus musculus, N2a): 36.2 ± 4.3 µM
- melting point: 209 to 210 °C

Molecule: Cc1ccc(S(=O)(=O)N/N=C\c2ccc(F)c(Oc3ccccc3)c2)cc1 [Compound 3d]
- LE MCF-7 (MCF-7 [1]): 0.121

Molecule: COc1cccc2c1C(=O)c1c(O)c3c(c(O)c1C2=O)C[C@@](O)(C(=O)CO)C[C@@H]3O[C@H]1C[C@H](N)[C@H](O)[C@H](C)O1 [Doxorubicin]
- LE MCF-7 (MCF-7 [3]): 0.185
- LE MDA-MB-468 (MDA-MB-468): 0.182

Molecule: O=S(=O)(N/N=C/c1c[nH]c2ccc(Cl)cc12)c1ccccc1 [Compound 1e, N’-[(E)-(5-chloro-1H-indol-3-yl)methylidene]benzenesulfonohydrazide]
- IC50 (MCF-7 [2]; Homo sapiens, MCF7, 72 h): < 1 µM
- IC50 (MCF-7 [2]): 0.5 ± 0.1 µM
- MCF-7 SI (MCF-7 [2]): 13
- IC50 (MDA-MB-231; Homo sapiens, MDA-MB-231, 72 h): < 1 µM
- IC50 (MDA-MB-231): 0.9 ± 0.2 µM
- IC50 (Neuro-2a; Mus musculus, N2a): 6.5 ± 1.1 µM

Molecule: CC(=O)n1cc(/C=N/NS(=O)(=O)c2ccc(C)cc2)c2ccccc21 [Compound 1d, N’-[(E)-(1-acetyl-1H-indol-3-yl)methylidene]-4-methylbenzenesulfonohydrazide]
- IC50 (MCF-7 [2]; Homo sapiens, MCF7, 72 h): 1.8 ± 0.6 µM
- MCF-7 SI (MCF-7 [2]): 46
- IC50 (MDA-MB-231; Homo sapiens, MDA-MB-231, 72 h): 65.1 ± 6.1 µM
- MDA-MB-231 SI (MDA-MB-231): 1.272
- IC50 (Neuro-2a; Mus musculus, N2a): 82.8 ± 8.1 µM

Molecule: Cc1ccc(S(=O)(=O)N/N=C\c2ccc(F)cc2C(F)(F)F)cc1 [Compound 3j]
- LE MCF-7 (MCF-7 [1]): 0.148

Molecule: O=S(=O)(N/N=C\c1cn(CCN2CCOCC2)c2ccccc12)c1ccc(Cl)cc1 [Compound 5f]
- LE MCF-7 (MCF-7 [3]): 0.163
- LE MDA-MB-468 (MDA-MB-468): 0.170

Molecule: COc1cc(/C=N\NS(=O)(=O)c2ccc(C)cc2)ccc1F [Compound 3f]
- LE MCF-7 (MCF-7 [1]): 0.207

Molecule: Cc1ccc(S(=O)(=O)N/N=C\c2cccc(C(F)(F)F)c2Cl)cc1 [Compound 3e]
- LE MCF-7 (MCF-7 [1]): 0.148

Molecule: N’-[(E)-(5-methoxy-1-methyl-1H-indol-3-yl)methylidene]benzenesulfonohydrazide [Compound 1i]
- LE MCF-7 Exp (MCF-7 [2]; LE = pIC50/N from MTT IC50, 72 h): 0.158
- IC50 (MCF-7 [2]): 165 ± 8.6 µM
- MCF-7 SI (MCF-7 [2]): 0.818
- LE MDA-MB-231 Exp (MDA-MB-231): 0.178
- IC50 (MDA-MB-231): 54.8 ± 7.4 µM
- MDA-MB-231 SI (MDA-MB-231): 2.462
- Neuro-2a LE (Neuro-2a; LE = pIC50/N): 0.161
- IC50 (Neuro-2a): 135 ± 10.9 µM
